Experimental data from patent US20020137929A1, “1 - (3-heterocyclylphenyl) isothiourea, -isourea, -guanidine and -amidine herbicidal agents” (Intellectual Property Department, BASF Aktiengesellschaft, priority 1998, published 2002).

How the values were obtained:
[1] = tested on: AMBEL (Ragweed, Common); experiment: Preemergence herbicidal evaluation; assay type: in vivo, Ambrosia artemisifolia; details: rated 4-5 weeks after treatment
Procedure, shortened: (§1)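 Seeds were planted in potting soil in cups, then sprayed preemergence with the test compound in aqueous acetone at about 0.0156 to 0.500 kg per hectare. Cups were kept under greenhouse conditions and visually rated 4–5 weeks after treatment on a 0–9 scale against an untreated control.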

[2] = tested on: ZEAMX (Corn, Field); experiment: Postemergence herbicidal evaluation; assay type: in vivo, Zea mays; details: for Herbicidal rating ZEAMX: postemergence
Procedure, shortened: (§2)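 Visual 0-9 injury score (stand, vigor, malformation, size, chlorosis, appearance vs untreated) taken four to five weeks post-spray, averaged across repeat tests. Test plants about two weeks old; foliar spray of acetone/water (1:1) with 0.5% surfactant delivering ~0.0156-0.500 kg active/ha.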

[3] = tested on: CYPSE (Flatsedge); experiment: Preemergence weed control under flooded paddy conditions; assay type: in vivo, Cyperus serotinus; details: rated 3-4 weeks after treatment
Procedure, shortened: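 Ratings on a 0-9 visual scale cover stand, vigor, malformation, size, chlorosis and overall appearance relative to a control, taken three to four weeks post-treatment. Application was into flood water over freshly sown silt loam at roughly 0.0313 to 0.500 kg/ha.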

[4] = tested on: ZEAMX (Corn, Field); experiment: Preemergence herbicidal evaluation; assay type: in vivo, Zea mays; details: rated 4-5 weeks after treatment
Procedure, shortened: as §1

[5] = tested on: ECHORC (Watergrass (Calif.)); experiment: Preemergence weed control under flooded paddy conditions; assay type: in vivo, Echinochloa oryzoides; details: rated 3-4 weeks after treatment
Procedure, shortened: (§3)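 Flooded-pot preemergence screen with silt loam and seeds in the upper 0.5 cm. Dose about 0.0313 to 0.500 kg/ha, delivered into flood water; visual 0-9 score after 3 to 4 weeks.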

[6] = tested on: CASOB (Sicklepod); experiment: Postemergence herbicidal evaluation; assay type: in vivo, Cassia obtusifolia; details: for Herbicidal rating CASOB: postemergence
Procedure, shortened: as §2

[7] = tested on: GALAP (Galium); experiment: Postemergence herbicidal evaluation; assay type: in vivo, Galium aparine; details: for Herbicidal rating GALAP: postemergence
Procedure, shortened: as §2

[8] = tested on: TRZAWR (Wheat, Winter, cv Riband); experiment: Preemergence herbicidal evaluation; assay type: in vivo, Triticum aestivum; details: rated 4-5 weeks after treatment
Procedure, shortened: as §1

[9] = tested on: CHEAL (Lambsquarters, Common); experiment: Preemergence herbicidal evaluation; assay type: in vivo, Chenopodium album; details: rated 4-5 weeks after treatment
Procedure, shortened: as §1

[10] = tested on: CYPIR (Rice Flatsedge); experiment: Preemergence weed control under flooded paddy conditions; assay type: in vivo, Cyperus iria; details: rated 3-4 weeks after treatment
Procedure, shortened: as §3

[11] = tested on: ORYSAT (Rice, Tebonnet); experiment: Preemergence herbicidal evaluation; assay type: in vivo, Oryza sativa, (L.) Tebonnet; details: rated 4-5 weeks after treatment
Procedure, shortened: as §1

[12] = tested on: IPOHE (Morningglory, Ivyleaf); experiment: Preemergence herbicidal evaluation; assay type: in vivo, Ipomoea hederacea; details: rated 4-5 weeks after treatment
Procedure, shortened: as §1

CC(C)N1C(=O)CSC1=Nc1cc(-n2c(=O)cc(C(F)(F)F)n(C)c2=O)c(F)cc1Cl [Compound 164, 3-{4-Chloro-2-fluoro-5-[(3-isopropyl-4-oxo-2-thiazolidinylidene)amino]phenyl}-1-methyl-6-(trifluoromethyl)-2,4(1H,3H)-pyrimidinedione]
8.0: Preemergence herbicidal rating ZEAMX ([4]; 0.2500 kg/ha)
5.5: Herbicidal rating ZEAMX ([2]; rate 0.0625 kg/ha)
6.5: Herbicidal rating ZEAMX ([2]; rate 0.1250 kg/ha)
2.0: Preemergence herbicidal rating ZEAMX ([4]; 0.0156 kg/ha) | Herbicidal rating CASOB ([6]; rate 0.0156 kg/ha) | Herbicidal rating CASOB ([6]; rate 0.0313 kg/ha)
5.0: Herbicidal rating ZEAMX ([2]; rate 0.0156 kg/ha) | Herbicidal rating ZEAMX ([2]; rate 0.0313 kg/ha) | Herbicidal rating CASOB ([6]; rate 0.0625 kg/ha) | herbicidal effect rating, CYPIR ([10]; 0.0625 kg/ha) | Preemergence herbicidal rating ORYSAT ([11]; 0.1250 kg/ha)
0.0: herbicidal effect rating, CYPSE ([3]; 0.0313 kg/ha) | herbicidal effect rating, CYPSE ([3]; 0.0625 kg/ha)
3.0: herbicidal effect rating, CYPSE ([3]; 0.1250 kg/ha) | Preemergence herbicidal rating ZEAMX ([4]; 0.0313 kg/ha) | Herbicidal rating GALAP ([7]; rate 0.0156 kg/ha) | herbicidal effect rating, CYPIR ([10]; 0.0313 kg/ha) | Preemergence herbicidal rating ORYSAT ([11]; 0.0625 kg/ha)
6.0: Preemergence herbicidal rating AMBEL ([1]; 0.0156 kg/ha) | Preemergence herbicidal rating ZEAMX ([4]; 0.0625 kg/ha) | herbicidal effect rating, ECHORC ([5]; 0.0313 kg/ha) | Herbicidal rating CASOB ([6]; rate 0.1250 kg/ha) | Herbicidal rating GALAP ([7]; rate 0.1250 kg/ha) | Preemergence herbicidal rating TRZAWR ([8]; 0.1250 kg/ha) | herbicidal effect rating, CYPIR ([10]; 0.1250 kg/ha)
1.0: Preemergence herbicidal rating TRZAWR ([8]; 0.0156 kg/ha) | Preemergence herbicidal rating TRZAWR ([8]; 0.0313 kg/ha) | Preemergence herbicidal rating ORYSAT ([11]; 0.0156 kg/ha) | Preemergence herbicidal rating ORYSAT ([11]; 0.0313 kg/ha)
7.0: Preemergence herbicidal rating AMBEL ([1]; 0.0313 kg/ha) | Preemergence herbicidal rating AMBEL ([1]; 0.0625 kg/ha) | Preemergence herbicidal rating AMBEL ([1]; 0.1250 kg/ha) | herbicidal effect rating, CYPSE ([3]; 0.2500 kg/ha) | Preemergence herbicidal rating ZEAMX ([4]; 0.1250 kg/ha) | herbicidal effect rating, ECHORC ([5]; 0.0625 kg/ha) | Herbicidal rating GALAP ([7]; rate 0.0625 kg/ha) | Preemergence herbicidal rating TRZAWR ([8]; 0.2500 kg/ha) | Preemergence herbicidal rating ORYSAT ([11]; 0.2500 kg/ha)
9.0: Preemergence herbicidal rating AMBEL ([1]; 0.2500 kg/ha) | Preemergence herbicidal rating AMBEL ([1]; 0.5000 kg/ha) | Preemergence herbicidal rating ZEAMX ([4]; 0.5000 kg/ha) | herbicidal effect rating, ECHORC ([5]; 0.1250 kg/ha) | herbicidal effect rating, ECHORC ([5]; 0.2500 kg/ha) | Preemergence herbicidal rating TRZAWR ([8]; 0.5000 kg/ha) | Preemergence herbicidal rating CHEAL ([9]; 0.0156 kg/ha) | Preemergence herbicidal rating CHEAL ([9]; 0.0313 kg/ha) | Preemergence herbicidal rating CHEAL ([9]; 0.0625 kg/ha) | Preemergence herbicidal rating CHEAL ([9]; 0.1250 kg/ha) | Preemergence herbicidal rating CHEAL ([9]; 0.2500 kg/ha) | Preemergence herbicidal rating CHEAL ([9]; 0.5000 kg/ha) | herbicidal effect rating, CYPIR ([10]; 0.2500 kg/ha) | Preemergence herbicidal rating ORYSAT ([11]; 0.5000 kg/ha) | Preemergence herbicidal rating IPOHE ([12]; 0.0313 kg/ha) | Preemergence herbicidal rating IPOHE ([12]; 0.0625 kg/ha) | Preemergence herbicidal rating IPOHE ([12]; 0.1250 kg/ha) | Preemergence herbicidal rating IPOHE ([12]; 0.2500 kg/ha) | Preemergence herbicidal rating IPOHE ([12]; 0.5000 kg/ha)
4.0: Herbicidal rating GALAP ([7]; rate 0.0313 kg/ha) | Preemergence herbicidal rating TRZAWR ([8]; 0.0625 kg/ha) | Preemergence herbicidal rating IPOHE ([12]; 0.0156 kg/ha)

COCCCN1C(=O)CSC1=Nc1cc(-n2c(=O)cc(C(F)(F)F)n(C)c2=O)c(F)cc1Cl [Compound 172, 3-{4-Chloro-2-fluoro-5-{[3-(3-methoxypropyl)-4-oxo-2-thiazolidinylidene]amino}phenyl}-1-methyl-6-(trifluoromethyl)-2,4(1H, 3H)-pyrimidinedione]
9.0: Preemergence herbicidal rating AMBEL ([1]; 0.0625 kg/ha) | Preemergence herbicidal rating AMBEL ([1]; 0.1250 kg/ha) | Preemergence herbicidal rating AMBEL ([1]; 0.2500 kg/ha) | herbicidal effect rating, CYPSE ([3]; 0.1250 kg/ha) | herbicidal effect rating, CYPSE ([3]; 0.2500 kg/ha) | Preemergence herbicidal rating ZEAMX ([4]; 0.1250 kg/ha) | Preemergence herbicidal rating ZEAMX ([4]; 0.2500 kg/ha) | herbicidal effect rating, ECHORC ([5]; 0.0625 kg/ha) | herbicidal effect rating, ECHORC ([5]; 0.1250 kg/ha) | herbicidal effect rating, ECHORC ([5]; 0.2500 kg/ha) | Preemergence herbicidal rating TRZAWR ([8]; 0.2500 kg/ha) | Preemergence herbicidal rating CHEAL ([9]; 0.0156 kg/ha) | Preemergence herbicidal rating CHEAL ([9]; 0.0313 kg/ha) | Preemergence herbicidal rating CHEAL ([9]; 0.0625 kg/ha) | Preemergence herbicidal rating CHEAL ([9]; 0.1250 kg/ha) | Preemergence herbicidal rating CHEAL ([9]; 0.2500 kg/ha) | herbicidal effect rating, CYPIR ([10]; 0.2500 kg/ha) | Preemergence herbicidal rating IPOHE ([12]; 0.1250 kg/ha) | Preemergence herbicidal rating IPOHE ([12]; 0.2500 kg/ha)
8.0: Preemergence herbicidal rating ZEAMX ([4]; 0.0625 kg/ha) | herbicidal effect rating, CYPIR ([10]; 0.1250 kg/ha) | Preemergence herbicidal rating ORYSAT ([11]; 0.2500 kg/ha)
1.0: Postemergence herbicidal rating CASOB ([6]; rate 0.0156 kg/ha)
3.0: Postemergence herbicidal rating GALAP ([7]; rate 0.0156 kg/ha) | Preemergence herbicidal rating TRZAWR ([8]; 0.0313 kg/ha)
4.0: Preemergence herbicidal rating ZEAMX ([4]; 0.0156 kg/ha) | Postemergence herbicidal rating GALAP ([7]; Rate 0.0313 kg/ha)
5.0: Preemergence herbicidal rating AMBEL ([1]; 0.0156 kg/ha) | Postemergence herbicidal rating ZEAMX ([2]; Rate 0.0313 kg/ha) | Postemergence herbicidal rating ZEAMX ([2]; Rate 0.0625 kg/ha) | Postemergence herbicidal rating ZEAMX ([2]; rate 0.0156 kg/ha) | herbicidal effect rating, CYPIR ([10]; 0.0313 kg/ha) | Preemergence herbicidal rating ORYSAT ([11]; 0.0313 kg/ha)
7.0: Preemergence herbicidal rating AMBEL ([1]; 0.0313 kg/ha) | Preemergence herbicidal rating ZEAMX ([4]; 0.0313 kg/ha) | Postemergence herbicidal rating GALAP ([7]; Rate 0.0625 kg/ha) | Preemergence herbicidal rating TRZAWR ([8]; 0.0625 kg/ha) | Preemergence herbicidal rating TRZAWR ([8]; 0.1250 kg/ha) | herbicidal effect rating, CYPIR ([10]; 0.0625 kg/ha) | Preemergence herbicidal rating ORYSAT ([11]; 0.0625 kg/ha) | Preemergence herbicidal rating ORYSAT ([11]; 0.1250 kg/ha) | Preemergence herbicidal rating IPOHE ([12]; 0.0313 kg/ha) | Preemergence herbicidal rating IPOHE ([12]; 0.0625 kg/ha)
6.0: herbicidal effect rating, CYPSE ([3]; 0.0625 kg/ha) | herbicidal effect rating, ECHORC ([5]; 0.0313 kg/ha)
2.0: Postemergence herbicidal rating CASOB ([6]; Rate 0.0313 kg/ha) | Postemergence herbicidal rating CASOB ([6]; Rate 0.0625 kg/ha) | Preemergence herbicidal rating TRZAWR ([8]; 0.0156 kg/ha) | Preemergence herbicidal rating ORYSAT ([11]; 0.0156 kg/ha) | Preemergence herbicidal rating IPOHE ([12]; 0.0156 kg/ha)
